Converted amounts (≈) assume the structure as drawn. Like-named read-outs stand apart in the source and are kept apart here. Where a SMILES comes first, the peptide text is derived from it. The star is where a group is joined. X2 = CCCCN(CCc1c2c(nc3ccccc13)-c1cc3c(c(=O)n1C2)COC(=O)[C@]3(O)CC)*; Propanoyl(3-maleimido) = O=C1C=CC(=O)N1CCC(=O)*; PEG6 = NCCOCCOCCOCCOCCOCCOCCC(=O)O
Experiments:
[1] = Tumor homogenate activation efficiency, sarcoma tissue (Examples 28, 37); type: in vitro ADME; conditions: pH 5.0, 37° C., 2 h
Summary of the method: (§1)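 Activation is reported as the fraction of free Belotecan peak area among all Belotecan-bearing peaks by HPLC. The conjugate (1 mg/ml) reacts with 100 μg homogenate for 2 h at 37° C in MES buffer, pH 5.0.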

[2] = tested on: sarcoma SJSA-1 tumor model; assay: Efficacy in animal model of sarcoma SJSA-1, 30 mg/kg once a week for two weeks (Example 40); type: in vivo, BALB/c mice; conditions: for SJSA-1 (sarcoma tissue) mean tumor volume (mm^3) Day 1 / SJSA-1 (sarcoma tissue) mean tumor volume (mm^3) Day 4 / SJSA-1 (sarcoma tissue) mean tumor volume (mm^3) Day 7 / SJSA-1 (sarcoma tissue) mean tumor volume (mm^3) Day 10 / Mouse weight (%) on Day 14 / SJSA-1 (sarcoma tissue) growth rate (%) on Day 14 / SJSA-1 (sarcoma tissue) mean tumor volume (mm^3) Day 14: 30 mg/kg once a week for two weeks
Protocol: Test objective: To further compare the antitumor efficacy of different polypeptide Linkers in an animal tumor model of sarcoma SJSA-1.
Test drug: Polypeptide conjugate and normal saline control group.
The control group was administered normal saline. Administration was performed once a week for two weeks.

[3] = Tumor homogenate activation efficiency, non-small cell lung cancer tissue (Examples 28, 37); type: in vitro ADME; conditions: pH 5.0, 37° C., 2 h
Summary of the method: as §1

[4] = tested on: colo320 colorectal cancer tumor model
Summary of the method: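 Dosing was once a week for four weeks, with saline as control, in randomized groups of three mice. Groups were formed after subcutaneous colo320 xenografts (7.5×10^6 cells, right chest) grew to ≥120 mm^3 in female 6–8-week-old BALB/c nude mice.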

[5] = Tumor homogenate activation efficiency, breast cancer tissue (Examples 28, 37); type: in vitro ADME; conditions: pH 5.0, 37° C., 2 h
Summary of the method: as §1

[6] = Tumor homogenate activation efficiency, ovarian cancer tissue (Examples 28, 37); type: in vitro ADME; conditions: pH 5.0, 37° C., 2 h
Summary of the method: as §1

[7] = Homogenate activation efficiency, heart tissue (Examples 28, 37); type: in vitro ADME; conditions: pH 5.0, 37° C., 2 h
[8] = tested on: sarcoma SJSA-1 tumor model
Summary of the method: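 Female BALB/c nude mice (6-8 weeks) bearing subcutaneous right-chest SJSA-1 xenografts from 2×10^7 cells were randomized, three per group, once tumors reached at least 100 mm^3. Treatment given once a week for three weeks starting day 1; saline controls.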

[9] = Tumor homogenate activation efficiency, colorectal cancer tissue (Example 37); type: in vitro ADME; conditions: pH 5.0, 37° C., 2 h; Table 10
Protocol: Buffer preparation: 50 mM PH buffer (MES), 250 mM NaCl, pH adjusted to 5.0 with 0.5 M of sodium hydroxide.
The polypeptide conjugate was prepared into a 1 mg/ml solution with pH 5.0 buffer, 100 μg of tumor tissue homogenate was added, (the tumor tissue homogenate was the homogenate of tumor tissues prepared with a Jingxin F6/10 handheld homogenizer), and the solution was placed at 37° C. for 2 h. The tumor tissue homogenate could effectively activate the polypeptide conjugate and release Belotecan, and the activation efficiencies of the drugs in tumor tissues were compared by HPLC allowing determination of a decrease in the compounds and an increase in Belotecan:
Release percentage=peak area of Belotecan/total peak area of Belotecan and all other Belotecan-containing compounds

[10] = tested on: colo320 (colorectal cancer tissue); assay: cells; type: cell-based; conditions: CCK8, 48 h; Table 6
Summary of the method: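 Colo320 cells, 5,000 per well, exposed to drug concentration series for 48 h at 37 °C, 5% CO2 (0.1% DMSO controls). Viability by CCK8, absorbance at 450 nm after about 2 h. Survival rates and IC50 calculated.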

[11] = 15 mg/kg once a week for four weeks, Table 3
[12] = 45 mg/kg once a week for four weeks, Table 3
[13] = Table 14 (Example 43), dose 45 mg/kg, once a week for four weeks, BALB/c mice
[14] = 15 mg/kg once a week for three weeks, Table 2
[15] = 45 mg/kg once a week for three weeks, Table 2
[16] = 15 mg/kg once a week for four weeks, Table 8
[17] = 45 mg/kg once a week for four weeks, Table 8
[18] = 15 mg/kg once a week for three weeks, Table 7
[19] = 45 mg/kg once a week for three weeks, Table 7

## CC[C@@]1(O)C(=O)OCC2=C1C=C1c3nc4ccccc4c(CCN(C(=O)OCc4ccc(NC(=O)[C@H](CC(N)=O)NC(=O)[C@H](C)NC(=O)[C@H](C)NC(=O)CCOCCOCCOCCOCCOCCOCCNC(=O)CCN5C(=O)C=CC5=O)cc4)C(C)C)c3CN1C2 [MI-6PEG-AAN-PAB-Belotecan]
[1]; Table 5
  Percentage of release efficiency (%) Sarcoma tissue (SJSA1): 78.5%
[2]
  SJSA-1 (sarcoma tissue) mean tumor volume (mm^3) Day 1: 131.25 mm^3
  SJSA-1 (sarcoma tissue) mean tumor volume (mm^3) Day 4: 208.13 mm^3
  SJSA-1 (sarcoma tissue) mean tumor volume (mm^3) Day 7: 554.02 mm^3
  SJSA-1 (sarcoma tissue) mean tumor volume (mm^3) Day 10: 706.21 mm^3
  Mouse weight (%) on Day 14: −6.9%
  SJSA-1 (sarcoma tissue) growth rate (%) on Day 14: 1005.49%
  SJSA-1 (sarcoma tissue) mean tumor volume (mm^3) Day 14: 1319.7 mm^3
[2]; 30 mg/kg, SJSA-1 model, Example 40
  tumor suppression effect (in words): neither MI-6PEG-AAGP-D2 nor MI-6PEG-AAN-PAB-Belotecan had a satisfactory tumor suppression effect
[3]; Table 5
  Percentage of release efficiency (%) Non-small cell lung cancer tissue (A549): 79.9%
[4]; [11]
  Mouse weight (%): +29%
  colo320 (colorectal cancer cell) growth rate (%): 1105.40%
  colo320 (colorectal cancer cell) mean tumor volume (mm^3): 1224.3 mm^3
[4]; [12]
  Mouse weight (%): +6%
  colo320 (colorectal cancer cell) growth rate (%): 573.97%
  colo320 (colorectal cancer cell) mean tumor volume (mm^3): 635.7 mm^3
[4]; [13]
  Mouse weight (%): +6%
  colo320 (colorectal cancer cell) growth rate (%): 573.97%
  colo320 (colorectal cancer cell) mean tumor volume (mm^3): 635.7 mm^3
[5]; Table 5
  Percentage of release efficiency (%) Breast cancer tissue (SKBR3): 69.4%
[6]; Table 5
  Percentage of release efficiency (%) Ovarian cancer tissue (A2780): 75.3%
[7]; Table 5
  Percentage of release efficiency (%) Heart tissue: 2.7%
[8]; [14]
  Mouse weight (%): +6%
  SJSA-1 (sarcoma tissue) mean tumor volume (mm^3): 1357 mm^3
  SJSA-1 (sarcoma) Growth rate (%): 1174.19%
[8]; [15]
  Mouse weight (%): −5%
  SJSA-1 (sarcoma tissue) mean tumor volume (mm^3): 873.5 mm^3
  SJSA-1 (sarcoma) Growth rate (%): 753.02%

## CCCCN(CCc1c2c(nc3ccccc13)-c1cc3c(c(=O)n1C2)COC(=O)[C@]3(O)CC)C(=O)[C@H](CC(C)C)NC(=O)[C@H](CC(N)=O)NC(=O)[C@H](C)NC(=O)[C@H](C)NC(=O)CCOCCOCCOCCOCCOCCOCCNC(=O)CCN1C(=O)C=CC1=O [MI-6PEG-AANL-D4] ({Propanoyl(3-maleimido)-PEG6}-AANL-X2)
[1]; Table 10
  Percentage of release efficiency (%) Sarcoma tissue (SJSA1): 81.2%
[2]
  SJSA-1 (sarcoma tissue) mean tumor volume (mm^3) Day 1: 142.01 mm^3
  SJSA-1 (sarcoma tissue) mean tumor volume (mm^3) Day 4: 486.37 mm^3
  SJSA-1 (sarcoma tissue) mean tumor volume (mm^3) Day 7: 739.25 mm^3
  SJSA-1 (sarcoma tissue) mean tumor volume (mm^3) Day 10: 1068.21 mm^3
  Mouse weight (%) on Day 14: +2.3%
  SJSA-1 (sarcoma tissue) growth rate (%) on Day 14: 1137.43%
  SJSA-1 (sarcoma tissue) mean tumor volume (mm^3) Day 14: 1615.26 mm^3
[9]
  Percentage of release efficiency (%) Colorectal cancer tissue (colo320): 76.5%
[3]; Table 10
  Percentage of release efficiency (%) Non-small cell lung cancer tissue (A549): 77.7%
[4]; [16]
  Mouse weight (%): +17%
  colo320 (colorectal cancer cell) growth rate (%): 1081.25%
  colo320 (colorectal cancer cell) mean tumor volume (mm^3): 1271.1 mm^3
[4]; [17]
  Mouse weight (%): +18%
  colo320 (colorectal cancer cell) growth rate (%): 832.33%
  colo320 (colorectal cancer cell) mean tumor volume (mm^3): 978.4 mm^3
[4]; [13]
  Mouse weight (%): +18%
  colo320 (colorectal cancer cell) growth rate (%): 832.33%
  colo320 (colorectal cancer cell) mean tumor volume (mm^3): 978.4 mm^3
[5]; Table 10
  Percentage of release efficiency (%) Breast cancer tissue (SKBR3): 75.3%
[6]; Table 10
  Percentage of release efficiency (%) Ovarian cancer tissue (A2780): 66.7%
[10]
  IC50 Colorectal cancer tissue (colo320): 5.40 µg/mL (≈ 4.14 µM)
[7]; Table 10
  Percentage of release efficiency (%) Heart tissue: 4%
[8]; [18]
  Mouse weight (%): +19%
  SJSA-1 (sarcoma tissue) growth rate (%): 1031.84%
  SJSA-1 (sarcoma tissue) mean tumor volume (mm^3): 1289.8 mm^3
[8]; [19]
  Mouse weight (%): +19%
  SJSA-1 (sarcoma tissue) growth rate (%): 924.41%
  SJSA-1 (sarcoma tissue) mean tumor volume (mm^3): 1149.5 mm^3

From US20250235545A1, “POLYPEPTIDE CONJUGATE AND USE THEREOF” (SHANGHAI CHIXI BIOMEDICAL TECHNOLOGY CO., LTD, priority 2024, published 2025)
